In brackets after ≈: the same amount, converted by molar mass. Activity calls are given as the source filed them. No cut-off for these calls is given here.
What was measured:
Calf thymus DNA [1] = experiment: Binding affinity to calf thymus DNA assessed as DNA intercalation by measuring hypochromic shift by absorbance based UV-Vis spectroscopic analysis; type: nucleic-acid assay; details: Bos taurus
Escherichia coli [2] = experiment: Antibacterial activity against Escherichia coli ATCC 25922 assessed as inhibition of bacterial growth incubated for 18 hrs by two fold broth microdilution assay; type: functional
Pseudomonas aeruginosa [3] = experiment: Antibacterial activity against Pseudomonas aeruginosa assessed as inhibition of bacterial growth incubated for 18 hrs by two fold broth microdilution assay; type: functional
Acinetobacter baumannii [4] = experiment: Induction of oxidative stress in Acinetobacter baumannii assessed as decrease in GSH activity by Ellman's method; type: functional, organism-based
Escherichia coli [5] = experiment: Antibacterial activity against Escherichia coli ATCC 25922 assessed as reduction in metabolic activity by alamar blue staining based assay; type: functional, organism-based
Acinetobacter baumannii [6] = experiment: Antibacterial activity against Acinetobacter baumannii assessed as reduction in metabolic activity by alamar blue staining based assay; type: functional, organism-based
Acinetobacter baumannii [7] = experiment: Induction of drug resistance against Acinetobacter baumannii assessed as fold increase at MIC measured after 16 passages; type: functional
Staphylococcus aureus [8] = experiment: Antibacterial activity against Staphylococcus aureus ATCC 29213 assessed as inhibition of bacterial growth incubated for 18 hrs by two fold broth microdilution assay; type: functional
Cell membrane [9] = experiment: Induction of outer membrane permeabilization in Acinetobacter baumannii assessed as increase in fluorescence intensity by NPN-dye based fluorescence analysis; type: cell membranes
Acinetobacter baumannii [10] = experiment: Antibacterial activity against Acinetobacter baumannii assessed as increase in intracellular ROS production by DCFH-DA staining based assay; type: functional, organism-based
[11] = Cytotoxicity against human Squamous epithelial cell assessed as cell viability upto 50 ug/ml relative to control; type: toxicity, cell-based; details: squamous epithelial cells, up to 50 µg/mL, read-out: Activity
Escherichia coli [12] = experiment: Antibacterial activity against Escherichia coli ATCC 25922 assessed as reduction in LDH activity; type: functional, organism-based
Cell membrane [13] = experiment: Induction of outer membrane permeabilization in Escherichia coli ATCC 25922 assessed as increase in fluorescence intensity by NPN-dye based fluorescence analysis; type: cell membranes
Cell membrane [14] = experiment: Induction of membrane depolarization in Acinetobacter baumannii assessed as increase in fluorescence intensity measured at 20 to 120 min by DiSC3(5) dye-based fluorescence assay; type: cell membranes; details: time 20-120 min
Cell membrane [15] = experiment: Induction of inner membrane damage in Escherichia coli ATCC 25922 at 1 to 4 times MIC by PI staining fluorescence microscopy; type: cell membranes
Escherichia coli [16] = experiment: Induction of oxidative stress in Escherichia coli ATCC 25922 assessed as decrease in GSH activity by Ellman's method; type: functional, organism-based
[17] = Cytotoxicity against human Colon epithelial cell at 20 ug/ml; type: toxicity, cell-based; details: dose 20 µg/ml
Escherichia coli [18] = experiment: Antibacterial activity against Escherichia coli ATCC 25922 assessed as reduction in biofilm formation at 8 times MIC relative to control; type: functional; set-up: scale not given: the % may be the effect or the level left
Enterococcus faecalis = experiment: Antibacterial activity against Enterococcus faecalis assessed as inhibition of bacterial growth incubated for 18 hrs by two fold broth microdilution assay; type: functional
Acinetobacter baumannii [19] = experiment: Bactericidal activity against Acinetobacter baumannii assessed as reduction in bacterial growth at 4 times MIC observed after 2 hrs by time-kill kinetic assay; type: functional; set-up: scale not given: the % may be the effect or the level left
Acinetobacter baumannii [20] = experiment: Antibacterial activity against Acinetobacter baumannii assessed as reduction in LDH activity; type: functional, organism-based
Acinetobacter baumannii [21] = experiment: Antibacterial activity against Acinetobacter baumannii assessed as reduction in biofilm formation at 8 times MIC relative to control; type: functional; set-up: scale not given: the % may be the effect or the level left
Acinetobacter baumannii [22] = experiment: Antibacterial activity against Acinetobacter baumannii assessed as reduction in biofilm formation; type: functional, organism-based
Erythrocyte = experiment: Hemolytic activity in human RBC assessed as intact cell surface at 512 ug/ml incubated for 1 hr by microscopic analysis; type: toxicity, cell-based; details: dose 512 µg/ml
Cell membrane [23] = experiment: Induction of cell membrane disruption in Acinetobacter baumannii assessed as increase in protein leakage at 0.5 to 8 times MIC; type: cell membranes
Escherichia coli [24] = experiment: Antibacterial activity against Escherichia coli ATCC 25922 assessed as reduction in biofilm formation; type: functional, organism-based
Acinetobacter baumannii [25] = experiment: Bactericidal activity against Acinetobacter baumannii assessed as reduction in colony forming unit at MIC by time-kill kinetic assay; type: functional
Staphylococcus aureus [26] = experiment: Antibacterial activity against methicilin-resistant Staphylococcus aureus N315 assessed as inhibition of bacterial growth incubated for 18 hrs by two fold broth microdilution assay; type: functional
[27] = Hemolytic activity in human RBC assessed as hemolysis at 512 ug/ml incubated for 1 hr relative to control; type: toxicity, cell-based, Erythrocyte; details: human red blood cells (erythrocytes), at 512 µg/mL, read-out: Activity
[28] = Cytotoxicity against human Colon epithelial cell assessed as cell viability upto 50 ug/ml relative to control; type: toxicity, cell-based; details: colon epithelial cells, up to 50 µg/mL, read-out: Activity
Calf thymus DNA [29] = experiment: Binding affinity to calf thymus DNA assessed as decrease in fluorescence intensity of AO-DNA binding by acridine orange probe based competitive binding assay; type: nucleic-acid assay; details: Bos taurus
Escherichia coli [30] = experiment: Bactericidal activity against Escherichia coli ATCC 25922 assessed as reduction in colony forming unit at MIC by time-kill kinetic assay; type: functional
Escherichia coli [31] = experiment: Bactericidal activity against Escherichia coli ATCC 25922 assessed as reduction in bacterial growth at 4 times MIC observed after 2 hrs by time-kill kinetic assay; type: functional; set-up: scale not given: the % may be the effect or the level left
Cell membrane [32] = experiment: Induction of inner membrane permeabilization in Acinetobacter baumannii assessed as increase in fluorescence intensity by PI staining based fluorescence analysis; type: cell membranes
[33] = Cytotoxicity against human Squamous epithelial cell at 20 ug/ml; type: toxicity, cell-based; details: dose 20 µg/ml
Escherichia coli [34] = experiment: Induction of drug resistance against Escherichia coli ATCC 25922 assessed as fold increase at MIC measured after 16 passages; type: functional
Cell membrane [35] = experiment: Induction of cell membrane disruption in Escherichia coli ATCC 25922 assessed as increase in protein leakage at 0.5 to 8 times MIC; type: cell membranes
Cell membrane [36] = experiment: Induction of inner membrane permeabilization in Escherichia coli ATCC 25922 assessed as increase in fluorescence intensity by PI staining based fluorescence analysis; type: cell membranes
Klebsiella pneumoniae = experiment: Antibacterial activity against Klebsiella pneumoniae assessed as inhibition of bacterial growth incubated for 18 hrs by two fold broth microdilution assay; type: functional
Cell membrane [37] = experiment: Induction of cell membrane disruption in Acinetobacter baumannii assessed as cell membrane shrank at 2 times MIC by scanning electron microscopic analysis; type: cell membranes
Cell membrane [38] = experiment: Induction of membrane depolarization in Escherichia coli ATCC 25922 assessed as increase in fluorescence intensity measured at 20 to 120 min by DiSC3(5) dye-based fluorescence assay; type: cell membranes; details: time 20-120 min
Cell membrane [39] = experiment: Induction of inner membrane damage in Acinetobacter baumannii at 1 to 4 times MIC by PI staining fluorescence microscopy; type: cell membranes
Acinetobacter baumannii [40] = experiment: Antibacterial activity against Acinetobacter baumannii assessed as inhibition of bacterial growth incubated for 18 hrs by two fold broth microdilution assay; type: functional
Staphylococcus aureus [41] = experiment: Antibacterial activity against Staphylococcus aureus assessed as inhibition of bacterial growth incubated for 18 hrs by two fold broth microdilution assay; type: functional
Escherichia coli [42] = experiment: Antibacterial activity against Escherichia coli ATCC 25922 assessed as increase in intracellular ROS production by DCFH-DA staining based assay; type: functional, organism-based
Cell membrane [43] = experiment: Induction of membrane depolarization in Acinetobacter baumannii assessed as increase in fluorescence intensity at 1 to 8 times MIC by DiSC3(5) dye-based fluorescence assay; type: cell membranes; details: TDE = time-dependent effect
Cell membrane [44] = experiment: Induction of cell membrane disruption in Escherichia coli ATCC 25922 assessed as cell membrane shrank at 2 times MIC by scanning electron microscopic analysis; type: cell membranes
Pseudomonas aeruginosa [45] = experiment: Antibacterial activity against Pseudomonas aeruginosa ATCC 27853 assessed as inhibition of bacterial growth incubated for 18 hrs by two fold broth microdilution assay; type: functional
Acinetobacter baumannii [46] = experiment: Antibacterial activity against Acinetobacter baumannii assessed as increase in intracellular ROS production by measuring green fluorescence by DCFH-DA staining based microscopic analysis; type: functional, organism-based
Escherichia coli [47] = experiment: Antibacterial activity against Escherichia coli ATCC 25922 assessed as increase in intracellular ROS production by measuring green fluorescence by DCFH-DA staining based microscopic analysis; type: functional, organism-based
Escherichia coli [48] = experiment: Antibacterial activity against Escherichia coli assessed as inhibition of bacterial growth incubated for 18 hrs by two fold broth microdilution assay; type: functional
Cell membrane [49] = experiment: Induction of membrane depolarization in Escherichia coli ATCC 25922 assessed as increase in fluorescence intensity at 1 to 8 times MIC by DiSC3(5) dye-based fluorescence assay; type: cell membranes; details: TDE = time-dependent effect
Staphylococcus aureus [50] = experiment: Antibacterial activity against Staphylococcus aureus ATCC 25923 assessed as inhibition of bacterial growth incubated for 18 hrs by two fold broth microdilution assay; type: functional

N#C/C(=C\c1cn(CCO)c2ccccc12)S(=O)(=O)c1ccc(N)cc1
Activity (Calf thymus DNA [1]): Active | MIC (Escherichia coli [2]): 0.5 µg/mL (≈ 1.36 µM) | MIC (Pseudomonas aeruginosa [3]): 2 µg/mL (≈ 5.44 µM) | Activity (Acinetobacter baumannii [4]): Dose-Dependent Effect | Activity (Escherichia coli [5]): Dose-Dependent Effect | Activity (Acinetobacter baumannii [6]): Dose-Dependent Effect | fold change (FC) (Acinetobacter baumannii [7]): 8 | MIC (Staphylococcus aureus [8]): 2 µg/mL (≈ 5.44 µM) | Activity (Cell membrane [9]): Dose-Dependent Effect | Activity (Acinetobacter baumannii [10]): Dose-Dependent Effect | viability [11]: > 85% | Activity (Escherichia coli [12]): Dose-Dependent Effect | Activity (Cell membrane [13]): Dose-Dependent Effect | Activity (Cell membrane [14]): Dose-Dependent Effect | Activity (Cell membrane [15]): Active | Activity (Escherichia coli [16]): Dose-Dependent Effect | Activity [17]: Non-Toxic | Activity (Escherichia coli [18]): 21% | MIC (Enterococcus faecalis): 4 µg/mL (≈ 10.9 µM) | Activity (Acinetobacter baumannii [19]): 57% | Activity (Acinetobacter baumannii [20]): Dose-Dependent Effect | Activity (Acinetobacter baumannii [21]): 39% | Activity (Acinetobacter baumannii [22]): Dose-Dependent Effect | Activity (Erythrocyte): Non-Toxic | Activity (Cell membrane [23]): Active | Activity (Escherichia coli [24]): Dose-Dependent Effect | Activity (Acinetobacter baumannii [25]): 2 log10CFU | MIC (Staphylococcus aureus [26]): 2 µg/mL (≈ 5.44 µM) | hemolysis at 1 h, 512 ug/ml [27]: < 3% | viability [28]: > 85% | Activity (Calf thymus DNA [29]): Active | Activity (Escherichia coli [30]): 2.5 log10CFU | Activity (Escherichia coli [31]): 57% | Activity (Cell membrane [32]): Dose-Dependent Effect | Activity [33]: Non-Toxic | fold change (FC) (Escherichia coli [34]): 8 | Activity (Cell membrane [35]): Active | Activity (Cell membrane [36]): Dose-Dependent Effect | MIC (Klebsiella pneumoniae): 8 µg/mL (≈ 21.8 µM) | Activity (Cell membrane [37]): Active | Activity (Cell membrane [38]): Dose-Dependent Effect | Activity (Cell membrane [39]): Active | MIC (Acinetobacter baumannii [40]): 0.5 µg/mL (≈ 1.36 µM) | MIC (Staphylococcus aureus [41]): 2 µg/mL (≈ 5.44 µM) | Activity (Escherichia coli [42]): Dose-Dependent Effect | Activity (Cell membrane [43]): Tde | Activity (Cell membrane [44]): Active | MIC (Pseudomonas aeruginosa [45]): 4 µg/mL (≈ 10.9 µM) | Activity (Acinetobacter baumannii [46]): Dose-Dependent Effect | Activity (Escherichia coli [47]): Dose-Dependent Effect | MIC (Escherichia coli [48]): 8 µg/mL (≈ 21.8 µM) | Activity (Cell membrane [49]): Tde | MIC (Staphylococcus aureus [50]): 1 µg/mL (≈ 2.72 µM)

Reference: ChEMBL document CHEMBL5625248, “Identification of unique indolylcyanoethylenyl sulfonylanilines as novel structural scaffolds of potential antibacterial agents” (Eur J Med Chem, 2023)
